Assay results from article PMC2909581 (Clinical cancer research : an official journal of the …, 2010).
Where two headings read alike, the source gives them in different places. Blank lines part the entries; values can stand above or below the molecule they belong to.

Columns and labels:
clinical = format: in vivo, human; details: for Cmax on days 1 and 15 compared: concurrent sorafenib
[1] = Sorafenib and N-oxide metabolite plasma pharmacokinetics; format: in vivo, human
Hsp90 = assay: Western blot of PBMC lysates: Hsp90 levels; format: in vivo, human
[2] = in vivo
renal cancer = details: no prior VEGF inhibitor therapy; cited from earlier work
Hsp70 = assay: Western blot of PBMC lysates: Hsp70 levels; format: in vivo, human
melanoma = details: single agent; cited from earlier work
kidney cancer = details: no prior VEGF inhibitor therapy, single agent; cited from earlier work
Tumor Hsp90 = details: cited from earlier work
[3] = Phase I toxicity assessment
[4] = Maximum, Day 1, in combination with tanespimycin
[5] = Maximum, Day −1, sorafenib given alone
[6] = Mean, Day 1, in combination with tanespimycin, steady-state, eleven patients
[7] = Mean, Day −1, sorafenib given alone, steady-state, eleven patients
[8] = Minimum, Day 1, in combination with tanespimycin
[9] = Minimum, Day −1, sorafenib given alone
[10] = number of patients, tanespimycin 300 mg/m^2 (n = 3) + sorafenib
[11] = number of patients, tanespimycin 350 mg/m^2 (n = 7) + sorafenib
[12] = number of patients, tanespimycin 400 mg/m^2 (n = 11) + sorafenib
[13] = number of patients, tanespimycin 450 mg/m^2 (n = 6) + sorafenib

Cmax on days 1 and 15 compared (clinical): similar
SMILES: CO[C@H]1/C=C/C=C(\C)C(=O)NC2=CC(=O)C(N)=C(C[C@@H](C)C[C@H](OC)[C@H](O)[C@@H](C)/C=C(\C)[C@@H]1OC(N)=O)C2=O [17-AG]
Cmax (end of infusion) and AUC versus tanespimycin dose (clinical; in vivo, iv): increased with increasing tanespimycin dose

AUClast [1, 4]: 40.5 µM·h
Cmax [1, 4]: 7.3 µM
Tmax [1, 4]: 10.0 h
AUClast [1, 5]: 45.7 µM·h
Cmax [1, 5]: 6.4 µM
Tmax [1, 5]: 10.0 h
AUClast [1, 6]: 16.1 µM·h
Cmax [1, 6]: 2.6 µM
Tmax [1, 6]: 8.5 h
AUClast [1, 7]: 15.5 µM·h
Cmax [1, 7]: 2 µM
AUClast [1, 8]: 5.5 µM·h
Cmax [1, 8]: 0.7 µM
AUClast [1, 9]: 3.2 µM·h
Cmax [1, 9]: 0.5 µM
Tmax [1, 9]: 1.0 h
SMILES: CNC(=O)c1cc(Oc2ccc(NC(=O)Nc3ccc(Cl)c(C(F)(F)F)c3)cc2)cc[n+]1[O-] [N-oxide sorafenib]

AUClast [1, 4]: 146.8 µM·h
Cmax [1, 4]: 26.6 µM
Tmax [1, 4]: 10.0 h
AUClast [1, 5]: 181.2 µM·h
Cmax [1, 5]: 22.5 µM
Tmax [1, 5]: 10.0 h
AUClast [1, 8]: 46.7 µM·h
Cmax [1, 8]: 6.6 µM
Tmax [1, 8]: 1.0 h
AUClast [1, 9]: 44.3 µM·h
Cmax [1, 9]: 5.8 µM
Tmax [1, 9]: 1.0 h
AUC ([1]; human, plasma, po): 90.7 µM·h
Tmax ([1]; human, plasma, po, 400 mg): 1 to 10 h
mean steady-state trough levels ([1]; plasma, sorafenib 400 mg twice daily): 8.0 µM
time of chronic treatment until plasma concentration reached the steady-state ([1]; sorafenib 400 mg twice daily): 7 days
effect of coadministration of 17-AAG on systemic exposure ([1]; sorafenib 400 mg twice daily with 17-AAG): did not significantly alter
patients requiring dose modifications ([2]; human): 3 patients
patients with treatment interruptions ([2]; human): 5 patients
SMILES: CNC(=O)c1cc(Oc2ccc(NC(=O)Nc3ccc(Cl)c(C(F)(F)F)c3)cc2)ccn1 [sorafenib]
effect on Hsp90 levels (Hsp90; sorafenib therapy): not affected
predominant toxicities attributed [2]: hand-foot syndrome and diarrhea
response rate (renal cancer): 10%

SMILES: C=CCNC1=C2C[C@@H](C)C[C@H](OC)[C@H](O)[C@@H](C)/C=C(\C)[C@H](OC(N)=O)[C@@H](OC)/C=C\C=C(/C)C(=O)NC(=CC1=O)C2=O [tanespimycin, 17-demethoxy-allylaminogeldanamycin]
Cmax on days 1 and 15 compared (clinical): similar
half-life (clinical; human, plasma, iv): 3.6 h
Cmax (end of infusion) and AUC versus tanespimycin dose (clinical; intravenous infusion 300-450 mg/m^2): increased with increasing tanespimycin dose
clearance (Mean ± SD) (clinical; intravenous infusion, range 4.8 to 32.9 L/h/m^2): 15.0 ± 7.9 L/h/m^2
patient samples with decrease in Hsp90 levels (Hsp90; after tanespimycin therapy (on sorafenib)): 6 of the 14
patients with increase in Hsp70 level among those showing clinical benefit (Hsp70; after tanespimycin therapy): 8 of the 10
samples with Hsp70 induction (Hsp70; after treatment with tanespimycin (on sorafenib)): 11 of 14
response in phase II trial (melanoma): no objective responses or disease stabilization
response in phase II trial (kidney cancer): no objective responses
higher binding affinity of tumor Hsp90 (multi-chaperone complexes) (Tumor Hsp90): 100 fold
patients with treatment interruptions ([3]; human, in vivo): 2 patients
recommended phase II dose ([3]; in combination with sorafenib, intravenous, days 1, 8 and 15 every 28 days): 400 mg/m^2
Diarrhea Grade1 [3, 10]: 1
Diarrhea Grade2 [3, 10]: 1
Diarrhea Grade3 [3, 10]: 0
Diarrhea Grade4 [3, 10]: 0
Fatigue Grade1 [3, 10]: 3
Fatigue Grade2 [3, 10]: 0
Fatigue Grade3 [3, 10]: 0
Fatigue Grade4 [3, 10]: 0
Hand-Foot syndrome Grade1 [3, 10]: 1
Hand-Foot syndrome Grade2 [3, 10]: 0
Hand-Foot syndrome Grade3 [3, 10]: 0
Hand-Foot syndrome Grade4 [3, 10]: 0
Headache Grade1 [3, 10]: 1
Headache Grade2 [3, 10]: 0
Headache Grade3 [3, 10]: 0
Headache Grade4 [3, 10]: 0
Liver function abnormality Grade1 [3, 10]: 0
Liver function abnormality Grade2 [3, 10]: 1
Liver function abnormality Grade3 [3, 10]: 0
Liver function abnormality Grade4 [3, 10]: 0
Nausea Grade1 [3, 10]: 1
Nausea Grade2 [3, 10]: 0
Nausea Grade3 [3, 10]: 0
Nausea Grade4 [3, 10]: 0
Other toxicity Grade1 [3, 10]: 0
Other toxicity Grade2 [3, 10]: 3
Other toxicity Grade3 [3, 10]: 0
Other toxicity Grade4 [3, 10]: 0
Bleeding Grade1 [3, 11]: 1
Bleeding Grade2 [3, 11]: 1
Bleeding Grade3 [3, 11]: 0
Bleeding Grade4 [3, 11]: 0
Creatinine Grade1 [3, 11]: 1
Creatinine Grade2 [3, 11]: 1
Creatinine Grade3 [3, 11]: 0
Creatinine Grade4 [3, 11]: 0
Diarrhea Grade1 [3, 11]: 3
Diarrhea Grade2 [3, 11]: 1
Diarrhea Grade3 [3, 11]: 1
Diarrhea Grade4 [3, 11]: 0
Emesis Grade1 [3, 11]: 2
Emesis Grade2 [3, 11]: 3
Emesis Grade3 [3, 11]: 1
Emesis Grade4 [3, 11]: 0
Fatigue Grade1 [3, 11]: 2
Fatigue Grade2 [3, 11]: 0
Fatigue Grade3 [3, 11]: 0
Fatigue Grade4 [3, 11]: 0
Hand-Foot syndrome Grade1 [3, 11]: 0
Hand-Foot syndrome Grade2 [3, 11]: 2
Hand-Foot syndrome Grade3 [3, 11]: 0
Hand-Foot syndrome Grade4 [3, 11]: 0
Headache Grade1 [3, 11]: 1
Headache Grade2 [3, 11]: 1
Headache Grade3 [3, 11]: 0
Headache Grade4 [3, 11]: 0
Hemoglobin Grade1 [3, 11]: 1
Hemoglobin Grade2 [3, 11]: 0
Hemoglobin Grade3 [3, 11]: 0
Hemoglobin Grade4 [3, 11]: 0
Liver function abnormality Grade1 [3, 11]: 2
Liver function abnormality Grade2 [3, 11]: 0
Liver function abnormality Grade3 [3, 11]: 0
Liver function abnormality Grade4 [3, 11]: 0
Myalgias Grade1 [3, 11]: 1
Myalgias Grade2 [3, 11]: 0
Myalgias Grade3 [3, 11]: 0
Myalgias Grade4 [3, 11]: 0
Nausea Grade1 [3, 11]: 3
Nausea Grade2 [3, 11]: 2
Nausea Grade3 [3, 11]: 0
Nausea Grade4 [3, 11]: 0
Other toxicity Grade1 [3, 11]: 5
Other toxicity Grade2 [3, 11]: 1
Other toxicity Grade3 [3, 11]: 1
Other toxicity Grade4 [3, 11]: 0
Platelets Grade1 [3, 11]: 1
Platelets Grade2 [3, 11]: 0
Platelets Grade3 [3, 11]: 0
Platelets Grade4 [3, 11]: 0
Creatinine Grade1 [3, 12]: 0
Creatinine Grade2 [3, 12]: 1
Creatinine Grade3 [3, 12]: 0
Creatinine Grade4 [3, 12]: 0
Diarrhea Grade1 [3, 12]: 1
Diarrhea Grade2 [3, 12]: 1
Diarrhea Grade3 [3, 12]: 0
Diarrhea Grade4 [3, 12]: 0
Dyspnea Grade1 [3, 12]: 0
Dyspnea Grade2 [3, 12]: 0
Dyspnea Grade3 [3, 12]: 1
Dyspnea Grade4 [3, 12]: 1
Emesis Grade2 [3, 12]: 0
Emesis Grade3 [3, 12]: 0
Emesis Grade4 [3, 12]: 0
Fatigue Grade2 [3, 12]: 2
Fatigue Grade3 [3, 12]: 1
Fatigue Grade4 [3, 12]: 0
Hand-Foot syndrome Grade1 [3, 12]: 0
Hand-Foot syndrome Grade2 [3, 12]: 3
Hand-Foot syndrome Grade3 [3, 12]: 2
Hand-Foot syndrome Grade4 [3, 12]: 0
Headache Grade1 [3, 12]: 1
Headache Grade2 [3, 12]: 0
Headache Grade3 [3, 12]: 0
Headache Grade4 [3, 12]: 0
Hemoglobin Grade1 [3, 12]: 2
Hemoglobin Grade2 [3, 12]: 1
Hemoglobin Grade3 [3, 12]: 0
Hemoglobin Grade4 [3, 12]: 0
Infection Grade1 [3, 12]: 0
Infection Grade2 [3, 12]: 1
Infection Grade3 [3, 12]: 0
Infection Grade4 [3, 12]: 0
Liver function abnormality Grade1 [3, 12]: 1
Liver function abnormality Grade2 [3, 12]: 0
Liver function abnormality Grade3 [3, 12]: 0
Liver function abnormality Grade4 [3, 12]: 0
Myalgias Grade1 [3, 12]: 1
Myalgias Grade2 [3, 12]: 0
Myalgias Grade3 [3, 12]: 0
Myalgias Grade4 [3, 12]: 0
Nausea Grade1 [3, 12]: 6
Nausea Grade2 [3, 12]: 1
Nausea Grade3 [3, 12]: 1
Nausea Grade4 [3, 12]: 0
Neutropenia Grade1 [3, 12]: 0
Neutropenia Grade2 [3, 12]: 0
Neutropenia Grade3 [3, 12]: 1
Neutropenia Grade4 [3, 12]: 0
Other toxicity Grade1 [3, 12]: 3
Other toxicity Grade2 [3, 12]: 3
Other toxicity Grade3 [3, 12]: 2
Other toxicity Grade4 [3, 12]: 0
Platelets Grade1 [3, 12]: 2
Platelets Grade2 [3, 12]: 0
Platelets Grade3 [3, 12]: 0
Platelets Grade4 [3, 12]: 0
Abdominal pain Grade1 [3, 13]: 2
Abdominal pain Grade2 [3, 13]: 0
Abdominal pain Grade3 [3, 13]: 1
Abdominal pain Grade4 [3, 13]: 0
Diarrhea Grade1 [3, 13]: 2
Diarrhea Grade2 [3, 13]: 0
Diarrhea Grade3 [3, 13]: 1
Diarrhea Grade4 [3, 13]: 0
Emesis Grade1 [3, 13]: 1
Emesis Grade2 [3, 13]: 0
Emesis Grade3 [3, 13]: 0
Emesis Grade4 [3, 13]: 0
Fatigue Grade1 [3, 13]: 4
Fatigue Grade2 [3, 13]: 1
Fatigue Grade3 [3, 13]: 0
Fatigue Grade4 [3, 13]: 0
Hand-Foot syndrome Grade1 [3, 13]: 1
Hand-Foot syndrome Grade2 [3, 13]: 1
Hand-Foot syndrome Grade3 [3, 13]: 2
Hand-Foot syndrome Grade4 [3, 13]: 0
Headache Grade1 [3, 13]: 2
Headache Grade2 [3, 13]: 0
Headache Grade3 [3, 13]: 0
Headache Grade4 [3, 13]: 0
Hemoglobin Grade1 [3, 13]: 1
Hemoglobin Grade2 [3, 13]: 0
Hemoglobin Grade3 [3, 13]: 0
Hemoglobin Grade4 [3, 13]: 0
Hypertension Grade1 [3, 13]: 0
Hypertension Grade2 [3, 13]: 1
Hypertension Grade3 [3, 13]: 0
Hypertension Grade4 [3, 13]: 0
Infection Grade1 [3, 13]: 0
Infection Grade2 [3, 13]: 0
Infection Grade3 [3, 13]: 1
Infection Grade4 [3, 13]: 0
Liver function abnormality Grade1 [3, 13]: 0
Liver function abnormality Grade2 [3, 13]: 0
Liver function abnormality Grade3 [3, 13]: 0
Liver function abnormality Grade4 [3, 13]: 1
Myalgias Grade1 [3, 13]: 1
Myalgias Grade2 [3, 13]: 0
Myalgias Grade3 [3, 13]: 0
Myalgias Grade4 [3, 13]: 0
Nausea Grade1 [3, 13]: 4
Nausea Grade2 [3, 13]: 0
Nausea Grade3 [3, 13]: 0
Nausea Grade4 [3, 13]: 0
Other toxicity Grade1 [3, 13]: 3
Other toxicity Grade2 [3, 13]: 0
Other toxicity Grade3 [3, 13]: 1
Other toxicity Grade4 [3, 13]: 0
Platelets Grade1 [3, 13]: 0
Platelets Grade2 [3, 13]: 0
Platelets Grade3 [3, 13]: 1
Platelets Grade4 [3, 13]: 0
patients requiring dose modifications ([3]; sorafenib to 400 mg once daily, tanespimycin to one dose level lower): 4 patients
